# Assay results published in patent publication US20090131512A1, “Inhibition of type I in IFN production” (Dynavax Technologies Corp., priority 2007, published 2009).
# Entries after “also recorded” stand apart in the source; their conditions may differ.
# Columns and labels:
# purified human pDC = assay: IFN-α production by TLR-activated purified pDC, ELISA; type: cell-based; conditions: for IFN-α production: subunit-specific PI3K inhibitors
# purified pDC [1] = assay: pDC viability, flow cytometry based LIVE/DEAD assay; type: cell-based, human; conditions: CpG-C 1 μM plus various concentrations of LY; 20 h; listed as LY
# Method: Purified pDC were stimulated with CpG-C ISS (1 μM) either alone or in combination with various concentration of PI3K inhibitor LY. After 20 h, viability was assessed using a flow cytometry based viability assay (LIVE/DEAD Viability/Cytotoxicity Kit from Molecular Probe). Average of […] independent donors is shown.
# purified pDC [2] = assay: IL-6 and TNF-α production by TLR-activated pDC, ELISA and real-time PCR; type: cell-based, human; conditions: CpG-A or CpG-B 0.5 μM; 16 hr; ELISA
# NF-kB p65 (pS529) = assay: NF-kB p65 phosphorylation in pDC, flow cytometry; type: cell-based, human; conditions: CpG-C 1 μM; LY 1 or 5 μM, NF-kB inhibitor 0.5 μM; 90 min
# Method: Accordingly, purified PDC were cultured with CpG-C ISS (1 μM) with or without PI3K inhibitor LY (1 μM or 5 μM) or NF-kB inhibitor (0.5 μM) for 90 min and analyzed by NF-kB flow cytometry. As described above, negatively purified pDC were stimulated with CpG-C and cells were immediately fixed with 4% of paraformaldehyde for 15 min a 37 C. Cells were then washed, permeabilized with PermBuffer III (BD bioscience) for 30 minutes on ice and stained with either Alexa-647 anti-human NF-kB p65 (pS529) for 30 min and then analyzed by flow cytometry.
compound,measurement,setting,value
O=C1NC(=O)/C(=C/c2ccc3c(c2)OC(F)(F)O3)S1 [AS604850],concentration at which an effect on IFN-α production is observed,"purified human pDC; CpG-C 1 μM, 16 hr, specificity for gamma subunit lost",> 20 µM
same,IFN-α production,"purified human pDC; CpG-C 1 μM, 16 hr",did not observe any effect
O=c1cc(N2CCOCC2)oc2c(-c3ccccc3)cccc12 [LY294002],pDC viability,purified pDC [1],no negative effect; also recorded: does not affect
same,inhibition of IFN-α,"purified human pDC; LY concentrations as low as 0.08 μM, TLR9",50%
same,concentration of maximal effect on IFN-α production,"purified human pDC; both TLR7 and TLR9 ligands, 16 hr",1.25 µM
same,IL-6 production in response to CpG-A and CpG-B,purified pDC [2],no significant inhibition
Cc1ccccc1-n1c(Cn2cnc3c(N)ncnc32)nc2cccc(C)c2c1=O [IC87114],IFN-α production,"purified human pDC; CpG-C 1 μM, 16 hr",inhibited
NC(=O)Nc1sc(-c2ccc(F)cc2)cc1C(N)=O [NF-kB inhibitor],NF-kB phosphorylation,NF-kB p65 (pS529),inhibited
